From US20250221977A1, “NOVEL BENZOTHIOPHENE DERIVATIVE AND USE THEREOF AS BET INHIBITOR” (BENOBIO CO., LTD., priority 2022, published 2025)

Test system: HPAF, a human pancreatic cancer cell line
Assay: In vitro anticancer efficacy test on human pancreatic cancer cell line (CCK cell viability assay)
Format: cell-based
Conditions: for IC50: HPAF cells, 96 hours, CCK assay
Description: HPAF, a human pancreatic cancer cell line, was dispensed in a 96-well plate and incubated in a 37° C., 5% CO2 incubator for 24 hours. Thereafter, 10 μl of Examples and Comparative Examples were treated to each well at different concentrations (1 nM, 0.01 μM, 0.1 μM, 1 μM, 10 μM, 100 μM) and incubated for 96 hours. Each well was treated with a reagent using a CCK assay kit (Dong-In LS, D Plus CCK cell viability assay kit), and reacted in a 37° C., 5% CO2 incubator for 30 minutes to 1 hour, and then the absorbance was measured at a wavelength of 450 nm using a microplate reader (SpectraMax i3x, USA). The IC50 value was confirmed using the GraphPad Prism 5 (GraphPad Software, Inc., San Diego, USA) program from the results obtained at this time.

| IC50 (Homo sapiens, Pancreatic cancer cell) | IC50 value for HPAF, times lower than Comparative Example 1 (versus JQ1) | Structure (SMILES) | IC50 |
| --- | --- | --- | --- |
| 130 nM | about 17.69 times | CNC(=O)CCN(Cc1ccc(C(F)F)cc1)C(=O)c1cc2c(OC)ccc(-c3ccc(=O)n(C)c3)c2s1 [BBC1115, N-[[4-(difluoromethyl)phenyl]methyl]-4-methoxy-N-[3-(methylamino)-3-oxo-propyl]-7-(1-methyl-6-oxo-3-pyridyl)benzothiophene-2-carboxamide] |  |
|  |  | Cc1sc2c(c1C)C(c1ccc(Cl)cc1)=N[C@@H](CC(=O)OC(C)(C)C)c1nnc(C)n1-2 [JQ1, reference compound] | 2300 nM |
